Experimental findings from US20080262081A1, “Novel Use of Nutraceutical Compositions Comprising Resveratrol” (priority 2005, published 2008) are described below.

The assay deals with phosphorylated p70S6K (Thr389). In words: Phosphorylated p70S6K (Thr389) level in insulin-stimulated C3H10T1/2 cells (Western blot). In kind it is cell-based, Mouse. Also on record: key to Phosphorylated p70S6K (Thr389) level, % vs. Vehicle: *: under detectable level. The settings on record: for Phosphorylated p70S6K (Thr389) level, % vs. Vehicle: vehicle = 100%. The method, then:
Mouse embryonic mesenchymal stem cells, C3H10T1/2 cells, (ATCC, USA, #CCL-226), were cultured in DMEM (low glucose […], Gibco), supplemented with 10% FBS and 2 mM L-Glutamine (Gibco). 2×10^5 cells /well were seeded in 6-well plate and grown to 80% confluency. Cells were treated with either rapamycin (Tocris, UK, #1292) at 100 nM, EGCG (TEAVIGO®, DSM Nutritional Product ltd. Switzerland) at 10 microM , resveratrol (DSM Nutritional Products Ltd. Switzerland) at 0.1, 1, 10 μM or combination of EGCG (10 microM) and resveratrol (0.1,1, 10 μM) for 30 min, then stimulated with insulin (Sigma, Switzerland) at 100 nM for 30 min. Cells were washed twice with PBS and harvested in 0.4 ml NETT buffer (0.1 M NaCl, 10 mM Tris-HCL (pH 7.6), 1 mM EDTA, 1% Triton X-100, pH 7.6 ). Cell lysates were sonicated and centrifuged at 14,000 rpm for 2 min. Protein concentration was determined using BCA assay (PIERCE, USA #23223). 10 microgram whole cell extracts were loaded on SDS-gel (10-20% Tricine gradient gel) and blotted on nitrocellulose membrane (0.2 μm pore, Invitrogen, #LC2000 ). Blot was incubated first with monoclonal antibody, phosphor-p70 S6 Kinase (Thr389)(1A5) mouse mAb (Cell signaling technology, #9206) at 1:2000 dilution, then with secondary antibody, goat anti-mouse IgG HRP (Santa Cruz, USA, #SC2055) at 1:10000. Protein load was control by measuring β-actin using anti mouse β-actin (Sigma, Switzerland, #A-5441). The signals were detected using ECL plus Western Blotting Detection System (Amersham Biosciences; RPN2132). Membrane was exposed to X-ray film for 30′ (Hyperfilm ECL; High performance chemiluminescence film, Amersham Biosciences; RPN1674 ) and films were scanned with ChemiGenius 2 machine (Syngene, UK). The signals were quantified by using GeneTools software (Syngene, UK). Signal of phosphorylated p70S6K was normalized to the protein load control β-actin, and vehicle was set up as 100%.
A general note: In western blotting, separated proteins are transferred to a membrane and probed.

[1] abbreviates: 10 μM single agent, insulin 100 nM.

With `CO[C@H]1C[C@@H]2CC[C@@H](C)[C@@](O)(O2)C(=O)C(=O)N2CCCC[C@H]2C(=O)O[C@H]([C@H](C)C[C@@H]2CC[C@@H](O)[C@H](OC)C2)CC(=O)[C@H](C)/C=C(\C)[C@@H](O)[C@@H](OC)C(=O)[C@H](C)C[C@H](C)/C=C/C=C/C=C/1C` [Rapa, rapamycin, reference compound], where the note is “100 nM, 30 min pretreatment then insulin 100 nM 30 min, normalized to β-actin”, the “Phosphorylated p70S6K (Thr389) level, % vs. Vehicle” value is “*”.

Regarding `Oc1ccc(C=Cc2cc(O)cc(O)c2)cc1` [Resveratrol, resveratrol], the “Phosphorylated p70S6K (Thr389) level, % vs. Vehicle” value was 95.23% (0.1 μM single agent, insulin 100 nM); 106.9157% (1 μM single agent, insulin 100 nM); 132.715% under setting [1]. The “effect on phosphorylated p70S6K (Thr389) amount (in words)” value (0.1, 1 and 10 microM) is recorded as “no influence”.

As to (−)-epigallocatechin gallate [EGCG], the “Phosphorylated p70S6K (Thr389) level, % vs. Vehicle” value under setting [1] came to 117.20%. For the same molecule, the “effect on phosphorylated p70S6K (Thr389) amount (in words)” value (10 microM) is “little effect”.
